These results are taken from patent US20100167329A1, “DEVICE FOR DRUG SCREENING” (Respiratorius AB, priority 2006, published 2010).

The subject of the test is small human bronchi. The test is described as follows: Repeated LTD4 control contractions of tissue sample in the perfusion chamber (long time stability). The following applies: LTD4 10 nM, 30 min, alternating with LTD4 free solution 60 min; repeated cycles n=8; after 14 h of measurements; FIG. 2. How it is done: One embodiment of the present invention is illustrated in FIG. 1, wherein the chamber 1 is made out of titanium and has a volume of typically 5 mL. The chamber is mounted on a mounting piece 2 of silver, which contains means for controlling the temperature of the chamber. An inlet 3 and outlet 4 allow a continuous flow of a physiological solution through the chamber ensuring a constant concentration of the substances in the chamber. Tissue sample is placed on hooks 8 and the hooks are placed in the chamber in a suitable position so that the tissue sample is completely immersed in the liquid flowing through the chamber. One of the hooks is attached to a force transducer 9 and the other is a fixed hook. Test substances are injected in the liquid prior to the liquid entering the chamber. As the tissue sample reacts to the substances present in the liquid the force transducer register the tension in the tissue sample due to contraction or relaxation. The force transducer is preferably AME801, which is commercially available from Infineon technologies.
A description of embodiments of the device according to the invention is shown in the previous section. In FIG. 2 control contractions in small human bronchi exposed to repeated (n=8) cycles with LTD4 (10 nM, 30 min) and LTD4 free solution (60 min) for 14 hours, are shown. The error bars show a low variance and good repeatability. […]

As to `CCCCC/C=C\C\C=C/C=C/C=C/[C@@H](SC[C@H](N)C(=O)NCC(=O)O)[C@@H](O)CCCC(=O)O` [LTD4], the “original contraction of the bronchi remaining” value was about 80%.
